Laboratory results: the NIST ThermoML archive (doi:10.1021/je7006956)
± gives the expanded uncertainty stated by the source.

Legend:
[1] = for mass density: 101.33 kPa, Pycnometric method; for mass density / viscosity: Liquid
[2] = cn = amount concentration of the nth substance listed, in mol/dm3; details: 101 kPa, Liquid, Pycnometric method

O=C(c1ccccc1)N(O)c1ccccc1 [N-phenylbenzohydroxamic acid]
Details | Normal melting temperature [°C]
[1], Crystal, visual observation | 121.00 ± 1

O=C(c1ccccc1)N(O)c1ccccc1 [N-phenylbenzohydroxamic acid] + C[S+](C)[O-]
mass density [kg/m3], [2]
Details | c1 = 0.0469 | c1 = 0.0938 | c1 = 0.1408 | c1 = 0.1877 | c1 = 0.2347 | c1 = 0.2816 | c1 = 0.3286 | c1 = 0.3755 | c1 = 0.4225 | c1 = 0.4694
298.15 K | 1097.23 ± 2.5 | 1098.39 ± 2.5 | 1098.59 ± 2.5 | 1099.36 ± 2.4 | 1100.14 ± 2.4 | 1100.75 ± 2.4 | 1101.46 ± 2.4 | 1102.02 ± 2.3 | 1102.75 ± 2.3 | 1102.8 ± 2.3
303.15 K | 1093.69 ± 2.5 | 1094.33 ± 2.5 | 1094.95 ± 2.5 | 1096.03 ± 2.5 | 1097.27 ± 2.4 | 1098.29 ± 2.4 | 1098.91 ± 2.4 | 1099.88 ± 2.3 | 1100.55 ± 2.3 | 1100.96 ± 2.3
308.15 K | 1089.07 ± 2.5 | 1090.08 ± 2.5 | 1091.61 ± 2.5 | 1091.83 ± 2.5 | 1093.14 ± 2.5 | 1094.08 ± 2.4 | 1095.64 ± 2.4 | 1096.52 ± 2.4 | 1097.67 ± 2.3 | 1098.81 ± 2.3
313.15 K | 1084.72 ± 2.6 | 1086.26 ± 2.5 | 1086.93 ± 2.5 | 1087.56 ± 2.5 | 1088.34 ± 2.5 | 1089.59 ± 2.4 | 1090.74 ± 2.4 | 1091.97 ± 2.4 | 1093.11 ± 2.4 | 1094.24 ± 2.4
318.15 K | 1078.8 ± 2.6 | 1080.58 ± 2.6 | 1081.55 ± 2.5 | 1082.82 ± 2.5 | 1083.33 ± 2.5 | 1084.33 ± 2.4 | 1085.8 ± 2.4 | 1086.86 ± 2.4 | 1087.92 ± 2.4 | 1089.02 ± 2.4

C[S+](C)[O-] [dimethyl sulfoxide]
[1]
Details | mass density [kg/m3] | viscosity [mPa·s]
298.15 K | 1094.75 ± 2.6 | 1.993 ± 0.096
303.15 K | 1090.76 ± 2.6 | 1.801 ± 0.088
308.15 K | 1086.06 ± 2.6 | 1.652 ± 0.081
313.15 K | 1080.45 ± 2.6 | 1.516 ± 0.075
318.15 K | 1075.26 ± 2.6 | 1.398 ± 0.07
